In patent publication US8957184B2, “Pro-apoptotic peptides” (priority 2009, dated 2015):
Like-named read-outs stand apart in the source and are kept apart here. Ends that are not written are not given here.

Experiments:
[1] = system: Exponentially proliferating cells; experiment: Intracellular detection of biotinylated peptides (cell penetration); assay type: cell-based
Procedure: Exponentially proliferating cells were rinsed twice in PBS. A total of 6×10^4 cells per well were seeded in 24 well plates and incubated in RPMI-1640 at 37° C. After 24 h, biotinylated peptides were added and incubated with cells (4 h) for intracellular analysis. Cells were rinsed in PBS and fixed with 0.1% paraformaldehyde (PFA) for 10 min before adding […] of streptavidin-peroxidase. Then, cells were rinsed with PBS, incubated with di-amino-benzidyne (DAB) for 5 min, washed in PBS and analyzed by microscopy.

[2] = system: bone marrow B cells from CLL patients; experiment: Effect of DPT-C9h on bone marrow cells, CLL patients; assay type: cell-based, human
[3] = system: primary B cells from CLL patients; experiment: Effect of DPT-C9h on PBMC: B cells from CLL patients (annexin staining); assay type: cell-based, human
Procedure: PBMC (Peripheral Blood Mononuclear Cell) were isolated by Ficoll gradient centrifugation from healthy donors and CLL patients, cultured in complete RPMI medium and treated with 150 μM of DPT-C9h peptide. Upon 3 h of treatment, cells were washed and resuspended in complete RPMI medium. Apoptosis was estimated 6 h after washing using Annexin staining and specific markers for B cells (FIG. 4A), and for T, NK and monocytes (FIG. 4B). Apoptosis is represented as the percentage compared to cells treated with […].
PBMC were isolated by Ficoll gradient centrifugation from healthy donors and three different types of CLL patients: treated, non-treated and resistant. Cells were maintained in complete RPMI medium, treated with 150 μM of DPT-C9h peptide for 3 h and then washed and transferred to complete medium. Samples were analyzed at different times after washing. Apoptosis was estimated by annexin staining. The different populations were selected using specific markers. Apoptosis is represented as percentage compared to control non treated cells.
Mononuclear cells isolated from peripheral blood (PBMC) were prepared by Ficoll gradient centrifugation.
A total of 2.5×10^5 cells were washed with ice-cold PBS, diluted in ice-cold binding buffer and stained with annexin and propidium iodide (PI). Samples were maintained on ice for 10 min in the dark and then analyzed by flow cytometry.

Compound	internalization of peptide ([1]; data not shown)	further results
N=C(N)NCCC[C@H](NC(=O)[C@H](CCCNC(=N)N)NC(=O)[C@H](CCCNC(=N)N)NC(=O)[C@H](CCC(N)=O)NC(=O)[C@H](CCCNC(=N)N)NC(=O)[C@H](CCCNC(=N)N)NC(=O)[C@H](CCCCN)NC(=O)[C@H](CCCCN)NC(=O)[C@H](CCCNC(=N)N)NC(=O)CNC(=O)[C@@H](N)Cc1ccc(O)cc1)C(=O)O [Tat, YGRKKRRQRRR]	internalized	–
VKKKKIKREIKI [DPT-sh1, VKKKKIKREIKI]	internalized	–
VKKKKIKREIKILDESRAWQELIGDLTEIY [DPT-C9r, VKKKKIKREIKI-LDESRAWQELIGDLTEIY]	internalized	–
VKKKKIKREIKIYIETLDGILEQWARSEDL [DPT-C9, VKKKKIKREIKI-YIETLDGILEQWARSEDL]	–	internalization of peptide [1]: internalized
VKKKKIKREIKIYVETLDGIFEQWAHSEDL [DPT-C9h, VKKKKIKREIKI-YVETLDGIFEQWAHSEDL]	–	cell penetrating activity [2]: cell penetrating; penetrating properties [3]: penetrating
YIETLDGILEQWARSEDL [C9, YIETLDGILEQWARSEDL]	not internalized	–
